“Also recorded” adds a separate entry of the source. Read-outs that look alike come from different tables or passages of the source.
Assays:
Format in all cases: cell-based
[1] = system: human lung cancer and colorectal cancer cell lines; experiment: In vitro growth inhibition (SRB), summary over both cell lines; conditions: compared with control compound etoposide
Experimental: (§1) To confirm the in vitro growth inhibitory efficacy of the samples prepared in Examples 1 to 28 against human lung cancer and colorectal cancer cell lines, the experiments were performed as follows by applying the method described in the literature (Lee S K et al ([…]) Chem Biol Interact 115:215-28). A human lung cancer cell line A549 and a colorectal cancer cell line HCT116 were acquired from the American Type Culture Collection (ATCC, Manassas, Va., USA) and used.
(§2) A549, HCT116 cells were subcultured once or twice weekly under conditions of 37° C. and 5% CO2 using Roswell Park Memorial Institute (RPMI) Medium 1640 (RPMI 1640) containing 10% heat-inactivated Fetal Bovine Serum (FBS), 100 units/mL penicillin, 100 μg/mL streptomycin, and 250 ng/mL amphotericin B. All cells were thawed from liquid nitrogen, subcultured three times or more, and then used in the experiment.
(§3) The effects of the compounds obtained in Examples 1 to 28 on cell growth were measured by a sulforhodamine B (SRB) method (Lee et al (1998) Chem Biol Interact 115: 215-28).
(§4) Specifically, the human lung cancer and colon cancer cell lines used in the present invention were subcultured in a RPMI medium containing 10% FBS, 1% PSF, and the like, 10 μl of a sample dissolved in 10% DMSO and 190 μl (5×10^4 cells/ml) of the cell suspension were placed in each well of a 96-well plate. 190 μl of the cell suspension was placed in at least 16 wells, cultured for 30 minutes, and used as a negative control (zero-day control) before the experiment. The cultured cells were fixed with 10% trichloroacetic acid (TCA) and then stained with an SRB solution, the staining solution was dissolved with 10 mM Tris-base, and absorbance was measured at 515 nm. Using the cell culture in 10% DMSO as a control, cell viability according to the treatment with each test sample was measured using the following Equation 1. % Cell viability=(OD(sample)−OD(0-day))/(OD(10% DMSO)−OD(0-day))×100 [Equation 1]
(§5) When the control in which the sample was not treated was defined as 100%, the value of the sample treatment group was shown as a percentage with respect to the control, and each test sample treatment was determined by the mean value±SEM of the duplicate or triplicate test. The IC50 value is the concentration of the test sample for 50% viability.

[2] = system: colorectal cancer cell line HCT116; experiment: cells; conditions: Homo sapiens
Experimental: as §1, §2, §3, §4, §5

[3] = system: human lung cancer cell line A549; experiment: cells; conditions: Homo sapiens
Experimental: as §1, §2, §3, §4, §5

[4] = HCT-116, read-out: HCT116-LC50, Table 2, SRB, concentration for 50% viability
[5] = A549, read-out: A549-LC50, Table 2, SRB, concentration for 50% viability

O=C(NCC[Se][Se]CCNC(=O)/C(Cc1ccc([N+](=O)[O-])cc1)=N/O)/C(Cc1ccc([N+](=O)[O-])cc1)=N/O [SSM-12, (2E,2′E)-N,N′-(diselanediylbis(ethane-2,1-diyl))bis(2-(hydroxyimino)-3-(4-nitrophenyl)propanamide)]
cancer cell growth inhibitory activity compared to etoposide [1]: higher inhibitory activity than a control compound etoposide; also recorded: excellent cancer cell growth inhibitory potential even compared to etoposide
CC50 ([2]; HCT-116, read-out: HCT116-LC50): 90 nM
CC50 ([3]; A549, read-out: A549-LC50): 90 nM

O=C(NCC[Se][Se]CCNC(=O)/C(Cc1ccc(O)c(F)c1)=N/O)/C(Cc1ccc(O)c(F)c1)=N/O [SSM-3, (2E,2′E)-N,N′-(diselanediylbis(ethane-2,1-diyl))bis(3-(3-fluoro-4-hydroxyphenyl)-2-(hydroxyimino)propanamide)]
cancer cell growth inhibitory activity compared to etoposide [1]: higher inhibitory activity than a control compound etoposide; also recorded: excellent cancer cell growth inhibitory potential even compared to etoposide
CC50 [2, 4]: 50 nM
CC50 [3, 5]: 60 nM

O=C(NCC[Se][Se]CCNC(=O)/C(Cc1ccccc1)=N/O)/C(Cc1ccccc1)=N/O [SSM-4, (2E,2′E)-N,N′-(diselanediylbis(ethane-2,1-diyl))bis(2-(hydroxyimino)-3-phenylpropanamide)]
cancer cell growth inhibitory activity compared to etoposide [1]: higher inhibitory activity than a control compound etoposide; also recorded: excellent cancer cell growth inhibitory potential even compared to etoposide
CC50 ([2]; HCT-116, read-out: HCT116-LC50): 90 nM
CC50 ([3]; A549, read-out: A549-LC50): 80 nM

O=C(NCC[Se][Se]CCNC(=O)/C(Cc1ccc(O)c(Cl)c1)=N/O)/C(Cc1ccc(O)c(Cl)c1)=N/O [SSM-2, (2E,2′E)-N,N′-(diselanediylbis(ethane-2,1-diyl))bis(3-(3-chloro-4-hydroxyphenyl)-2-(hydroxyimino)propanamide)]
cancer cell growth inhibitory activity compared to etoposide [1]: higher inhibitory activity than a control compound etoposide; also recorded: excellent cancer cell growth inhibitory potential even compared to etoposide
CC50 [2, 4]: 20 nM
CC50 [3, 5]: 50 nM

Source: patent US11629123B2, “Selenopsammaplin A and derivative thereof, preparation method therefor, and composition for preventing and treating cancer, containing same as active ingredients” (priority 2017, dated 2023)
